Measured values published in the METLIN SMRT retention time set (Domingo-Almenara et al. 2019).

Assay: gradient 5% acetonitrile 3 min, to 50% in 2 min, to 85% in 15 min, held 3 min, 100 µL/min
Settings: column: Zorbax Extend-C18 2.1 x 50 mm; eluents: water / acetonitrile, 0.1% formic acid
In short: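 Mixtures of ~100 pure standards were chromatographed on a Zorbax Extend-C18 column (2.1 × 50 mm, 1.8 μm) at 100 μL/min using water and acetonitrile, each with 0.1% formic acid. Detection used a quadrupole time-of-flight mass spectrometer in positive and negative ionization mode, and data collection spanned 3 months. Retention time was obtained from adduct peaks picked computationally and each checked manually.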

SMILES | RP-LC retention time [s]
CS(=O)(=O)N1CCCC(C(=O)NC2CCCCC2)CCNC(=O)CC1 (stereo unspecified) | 633
O=C(Cc1ccc(Cl)cc1)N1CCN(c2nc(CN3CCOCC3)cs2)CC1 | 642
N#Cc1ccc(Cl)cc1NC(=O)C(=O)NCC(O)C1CCCCC1 (stereo unspecified) | 825
COc1cccc(N2CC(C(=O)Nc3nnc4n3CCS4)CC2=O)c1 (stereo unspecified) | 586
CCOC(=O)c1c(S(=O)(=O)N2CCC(C(=O)NCc3ccc(C)cc3)CC2)c(C)n(CC)c1C | 895
CCCCOc1ccc(C(=O)N2CCN(c3nc4ccncc4n(C)c3=O)CC2)cc1 | 702
CC(=O)Nc1ccc2c(c1)CN(C(=O)c1ccccc1C(F)(F)F)C(C(=O)N(C)C)C2 (stereo unspecified) | 675
Cc1[nH]c(C(=O)N2CCCC(C(=O)NCc3cccc(Cl)c3)C2)c(C)c1C(=O)OC(C)C (stereo unspecified) | 885
CN1C(=O)CCc2cc(NC(=O)c3ccoc3)ccc21 | 653
COC(=O)C1CCN(S(=O)(=O)c2ccc(Cl)c(-c3nnc(-c4ccccc4)o3)c2)CC1 | 1040
Cc1cc(C)n(-c2nc(C)c(C(=O)Nc3ccc(F)cc3)s2)n1 | 1060
Cc1ccc(S(=O)(=O)N2CCC(c3nc(C(=O)N4CCCC4)c(C)o3)CC2)cc1C | 747
CCc1nnc([C@@H]2CC(F)(F)CN2C(=O)COc2ccc(F)cc2)o1 | 800
CC1=NS(=O)(=O)N(C)C=C1C(=O)OCc1nc(-c2ccc(F)cc2)no1 | 952
Cc1cc(C)cc(NC(=O)c2cccn2Cc2noc(C3CC3)n2)c1 | 994
CCOC(=O)C(=O)NCc1ccccc1Cl | 735
O=C(C1CCCN(c2nc3cccnc3s2)C1)N1CCCCCC1 (stereo unspecified) | 795
CC1CCCN(CC(=O)Nc2nc(-c3ccccc3)cs2)C1 (stereo unspecified) | 655
COc1ccc(Cl)cc1S(=O)(=O)N(C)C1CCc2nn(CC3CC3)c(=O)n2CC1 (stereo unspecified) | 958
CCN1CCN(S(=O)(=O)c2ccc(/C=C\c3onc(C)c3NC(=O)C3CC3)cc2)CC1 | 639
CNC(=O)c1ccccc1Nc1nc(Nc2ccc(N3CCOCC3)cc2OC)ncc1Cl | 722

SMILES | RP-LC retention time [s]
Cc1cccc(-c2nc(-c3cn(-c4ccccc4)nn3)no2)c1 | 1060
COCCN1C(=O)c2ccccc2C(C(=O)NCCc2ccccc2)C12CCCC2 (stereo unspecified) | 827
Cc1cc2c(cc1S(=O)(=O)N1CCCC1C(=O)NCc1ccc(F)cc1)OCC(=O)N2 (stereo unspecified) | 712
CC(=O)N1CCc2cc(-c3ccc(C(=O)NCCN4CCCCC4C)cc3)ccc21 (stereo unspecified) | 622
OCCCCc1nccc2c1[nH]c1ccccc12 | 628
CCCNC(=O)c1cnn(-c2cc(-c3nc(CC)no3)ccn2)c1C | 849
Cc1ccccc1NC(=O)C1CCN(S(C)(=O)=O)c2ccccc2O1 (stereo unspecified) | 867
CC(=O)Nc1nsc(N2CCC(C(=O)N3CCN(c4ccccc4)CC3)CC2)n1 | 659
CCCc1ccc(S(=O)(=O)N2CCN(c3cnn4c(C)nnc4c3)CC2)cc1 | 805
O=C(c1ccc(N2C[C@H]3C[C@H](C2)[C@H]2CCCC(=O)N2C3)nc1)N1CCN(c2ncccn2)CC1 | 567
CCC1(O)CCC12CCN(C(=O)CC(C)C)CC2 (stereo unspecified) | 744
COCCN1C(=O)c2cccn2CC1CNS(=O)(=O)c1ccc2c(c1)C(C)(C)C(=O)N2 (stereo unspecified) | 652
Cc1csc(-c2cc(S(=O)(=O)NCCN(C)C)cn2CC(=O)N2CCCCC2)n1 | 630
COc1ccc(NC(=O)CCc2c(C)nn(-c3cc(N(C)C)ncn3)c2C)cc1 | 733
Cc1cccc(OCC(=O)NC2CCN(Cc3c(C)noc3C)CC2)c1 | 622
Cc1cc(C)n(-c2nc(CC(=O)N3CCN(c4ccccc4)CC3)cs2)n1 | 947
CC(=O)Nc1ccc(SCc2c(F)cccc2Cl)nn1 | 787
Cc1ccc(-c2noc(CN3N=NC4C(=O)N(c5ccc(Br)cc5)C(=O)C43)n2)cc1C (stereo unspecified) | 1130
COc1cc(CNC(=O)C2CCCN(c3cc(=O)n(C)c(=O)n3C)C2)cc(OC)c1OC (stereo unspecified) | 636
CCOc1cc(=O)n2c(c1C(=O)Nc1ccc(Cl)cc1F)CCCC2 | 806
Cc1cc(-c2nnc(C3CCC3)o2)c(C)n1CC(=O)NCc1ccc(C(F)(F)F)cc1 | 941

SMILES | RP-LC retention time [s]
Cc1nc([C@@H]2CN(C(=O)c3cccs3)C[C@H]2C(N)=O)n[nH]1 | 562
CCN(CC)c1ccc(NC(=O)C2CCCN(c3ccc(=O)n(-c4cccc(Cl)c4)n3)C2)c(C)c1 (stereo unspecified) | 662
CCN1C(=O)c2cc(S(=O)(=O)Nc3cccc(Cl)c3)ccc2Oc2cccnc21 | 1060
Cc1ccc(-c2nc3ccccn3c2NC(=O)NCc2ccccc2)cc1 | 657
CCc1nc(OCC(=O)NCc2ccccc2Cl)c2c(C)c(C)oc2n1 | 1020
CC(C)C(=O)N1CCc2cc(C(=O)NC3CC3)ccc21 | 698
CCc1ccccc1NC(=O)Cn1nc2cc(C)nc(Nc3ccccc3)n2c1=O | 1050
O=C(CCc1nnc2c3cc(-c4ccc(F)cc4)nn3ccn12)NCCc1ccccn1 | 603
COCCCn1c(=O)c2ccccc2n(Cc2nc(-c3ccc(OC)cc3OC)no2)c1=O | 884
CCC(C(=O)NCCc1ccco1)n1c2ccccc2c2cnn(C)c(=O)c21 (stereo unspecified) | 864
CCc1cc(C(=O)Nc2ccc(C)cc2)nc2ccnn12 | 1060
CCOc1ccc(-n2c(=O)c3sccc3n(Cc3nc(-c4cccc(C)c4)no3)c2=O)cc1 | 1100
CCCN1CCN(c2ccc(-c3nc(-c4ccc(C)cc4)no3)cn2)CC1 | 750
CNC(=O)C1CN(S(=O)(=O)c2ccccc2)CC12CCCCC2 (stereo unspecified) | 776
COCC(=O)NC(Cc1ccccc1)c1nnc(N2CCN(C)CC2)o1 (stereo unspecified) | 585
Cc1noc(C2CN(C(=O)c3ccc(F)c(F)c3)CC23CCOCC3)n1 (stereo unspecified) | 710
CCOC(=O)CCC(=O)N1CCC(Oc2nc3c(C)ccc(C)c3s2)CC1 | 1100
COc1cccc(-c2cc3c(=O)n(Cc4nc(-c5ccc(F)c(Br)c5)no4)ccn3n2)c1 | 1090
Cc1nc([C@@H]2CN(C(=O)CCc3c(C)noc3C)C[C@H]2C(N)=O)n[nH]1 | 569

The remaining lines, values ahead:

RP-LC retention time [s] | SMILES
773 | O=C(Cc1ccccc1Cl)NCCCn1cccc1
770 | O=C(NCc1cccc2ccccc12)NCC1CCN(C(=O)COc2ccccc2)CC1
672 | CN1CCN(C(=O)C2CCN(S(=O)(=O)c3cc(-c4noc(C5CCC5)n4)cs3)CC2)CC1
838 | Cc1cc(C)cc(Oc2nccn3c(=O)n(CC(=O)Nc4ccccc4C)nc23)c1
709 | CCN1CC(c2nc(-c3ccccc3)no2)C2(CCCC2)C1 (stereo unspecified)
645 | Cc1noc(CN2CCN(C3CCN(Cc4ccc(C(F)(F)F)cc4)C3)C2=O)n1 (stereo unspecified)
1050 | CC1CCN(S(=O)(=O)c2cc(C(=O)N3CCN(c4ccccc4F)CC3)n(C)c2)CC1
742 | Cc1noc(C)c1CNC(=O)Cc1cccc(Cl)c1
906 | O=C(C1CCN(S(=O)(=O)c2ccc3[nH]c4c(c3c2)CCCCC4)CC1)N1CCCC1
649 | COc1ccc(NC(=O)N2CCC3(CC2)NC(=O)c2ccccc2N3C)c(OC)c1
807 | CCn1cc(S(=O)(=O)N2CCCC(c3nnnn3-c3ccccc3)C2)cn1 (stereo unspecified)
1040 | O=c1c2cc(-c3cccs3)nn2cnn1Cc1nc(-c2ccccc2Cl)no1
756 | COc1ncc(C(=O)Nc2cc(C)ccc2F)c(C)n1
651 | Cc1nn2c(CNC(=O)c3cc(F)cc(F)c3)c(C)nc2s1
657 | OCCNCc1ccc(-c2cc(Cl)ccc2Cl)o1
836 | Cc1nnc(-c2ccc(S(=O)(=O)N3CCCC(C)C3)o2)o1 (stereo unspecified)
726 | O=C(NCc1ccc(Br)cc1)c1cn2ccccc2n1
739 | COCCCNC(=O)N1CCCN(C2=NS(=O)(=O)C(c3ccc(C)c(C)c3)=C2C)CC1
1060 | CC1CCN(C(=O)c2nnc(-c3ccc(S(=O)(=O)N4CCCCC4)cc3)o2)CC1
593 | Cc1c(C(=O)NCCOc2cccc3cccnc23)cnn1-c1ccccc1
848 | O=C(CCc1ccc2cc[nH]c2c1)NCc1cc(F)cc(F)c1
591 | Nc1nc(CC(=O)Nc2ccc(CCNC[C@H](O)c3ccccc3)cc2)cs1
783 | O=C(NCc1ccco1)c1nc2ccccn2c1-c1ccccc1
601 | O=C(NCCN1CCOCC1)c1ccc(CS(=O)Cc2cccc(Cl)c2)o1 (stereo unspecified)
933 | O=C(NCc1ccccc1)C1=Cc2ccccc2OC=C1
546 | O=C(Nc1ncn[nH]1)C1CCC1
935 | O=C(Oc1ccc(NC2=NS(=O)(=O)c3ccccc32)cc1)c1ccccc1
575 | CCN1CCN(c2ncc3c(n2)CC(C)CC3=O)CC1 (stereo unspecified)
572 | Cn1c(CC2CCN(C(=O)c3ccccc3Cl)C2)nc2cccnc21 (stereo unspecified)
737 | Cc1ccc2nc(-c3cc(Br)ccc3F)c(Nc3ccc4c(c3)OCCO4)n2c1
